Inconclusive results and toxic doses are left out. No stated cut-off is given here; in the data, active means T/C of 150% or more; inactive means T/C below 125%.
Test system: L1210 leukemia ip in BDF1 mice, survival T/C
Experiment: NCI In Vivo Anticancer Drug Screen. Data for tumor model L1210 Leukemia (intraperitoneal) in B6D2F1 (BDF1) mice
Settings: endpoint: mean survival time, higher = longer survival
In short: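 Tumor cells were implanted, animals were treated, and survival was followed. The result divides the treated measurement by the vehicle-control measurement.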

[1] = dose: 100.0 mg/kg/injection, schedule: Q01DX009 (ip), vehicle: saline with Tween-80
[2] = dose: 100.0 mg/kg/injection, schedule: Q04DX003 (ip), vehicle: saline with Tween-80
[3] = dose: 200.0 mg/kg/injection, schedule: Q01DX009 (ip), vehicle: saline with Tween-80
[4] = dose: 100.0 mg/kg/injection, schedule: Q04DX003 (ip), vehicle: Klucel (hydroxypropylcellulose) (HPC)

Measured: T/C

COC(=O)C(CSCSC)NC(=O)NC1CCCCC1 (stereo not given)
inactive: [1] 91 % of control | [2] 102 % of control | [3] 91 % of control | dose: 200.0 mg/kg/injection, schedule: Q04DX003 (ip), vehicle: saline with Tween-80 89 % of control | dose: 400.0 mg/kg/injection, schedule: Q01DX009 (ip), vehicle: saline with Tween-80 91 % of control | dose: 400.0 mg/kg/injection, schedule: Q04DX003 (ip), vehicle: saline with Tween-80 91 % of control

Cc1ccc(C(=O)C[S+](C)C)c(C)c1
inactive: dose: 25.0 mg/kg/injection, schedule: Q01DX009 (ip), vehicle: saline 98 % of control | dose: 50.0 mg/kg/injection, schedule: Q01DX009 (ip), vehicle: saline 95 % of control | [2] 102 % of control

O=C(c1ccccc1)c1c2ccccc2c(C(=O)c2ccccc2)c2ccccc12
inactive: dose: 100.0 mg/kg/injection, schedule: Q01DX009 (ip), vehicle: Klucel (hydroxypropylcellulose) (HPC) 104 % of control | [4] 103 % of control | dose: 200.0 mg/kg/injection, schedule: Q01DX009 (ip), vehicle: Klucel (hydroxypropylcellulose) (HPC) 97 % of control | dose: 200.0 mg/kg/injection, schedule: Q04DX003 (ip), vehicle: Klucel (hydroxypropylcellulose) (HPC) 100 % of control | dose: 400.0 mg/kg/injection, schedule: Q01DX009 (ip), vehicle: Klucel (hydroxypropylcellulose) (HPC) 97 % of control | dose: 400.0 mg/kg/injection, schedule: Q04DX003 (ip), vehicle: Klucel (hydroxypropylcellulose) (HPC) 99 % of control

O=P(O)(CO)CO
inactive: dose: 100.0 mg/kg/injection, schedule: Q04DX003 (ip), vehicle: saline 109 % of control | dose: 200.0 mg/kg/injection, schedule: Q04DX003 (ip), vehicle: saline 95 % of control

CC1(C)N=C(N)N=C(N)N1c1cccc(CCCCc2ccc(Cl)cc2Cl)c1
inactive: dose: 5.0 mg/kg/injection, schedule: Q01DX001 (ip), vehicle: saline 94 % of control | dose: 6.25 mg/kg/injection, schedule: Q04DX003 (ip), vehicle: saline with Tween-80 98 % of control | dose: 10.0 mg/kg/injection, schedule: Q01DX001 (ip), vehicle: saline 100 % of control | dose: 12.5 mg/kg/injection, schedule: Q04DX003 (ip), vehicle: saline with Tween-80 93 % of control | dose: 20.0 mg/kg/injection, schedule: Q01DX001 (ip), vehicle: saline 100 % of control | dose: 25.0 mg/kg/injection, schedule: Q04DX003 (ip), vehicle: Klucel (hydroxypropylcellulose) (HPC) 101 % of control | dose: 25.0 mg/kg/injection, schedule: Q04DX003 (ip), vehicle: saline with Tween-80 98 % of control | dose: 50.0 mg/kg/injection, schedule: Q04DX003 (ip), vehicle: Klucel (hydroxypropylcellulose) (HPC) 100 % of control | [4] 93 % of control

Cc1cc(C)c(NC(=O)N(CCCl)N=O)cc1C
active: dose: 88.0 mg/kg/injection, schedule: Q01DX009 (ip), vehicle: carboxymethylcellulose (CMC) 155 % of control | dose: 133.0 mg/kg/injection, schedule: Q01DX009 (ip), vehicle: carboxymethylcellulose (CMC) 180 % of control | dose: 200.0 mg/kg/injection, schedule: Q01DX009 (ip), vehicle: carboxymethylcellulose (CMC) 166 % of control
inactive: dose: 1.0 mg/kg/injection, schedule: Q01DX009 (ip), vehicle: carboxymethylcellulose (CMC) 104 % of control | dose: 2.0 mg/kg/injection, schedule: Q01DX009 (ip), vehicle: carboxymethylcellulose (CMC) 109 % of control | dose: 4.0 mg/kg/injection, schedule: Q01DX009 (ip), vehicle: carboxymethylcellulose (CMC) 107 % of control | dose: 50.0 mg/kg/injection, schedule: Q01DX001 (ip), vehicle: other 97 % of control | dose: 100.0 mg/kg/injection, schedule: Q01DX001 (ip), vehicle: other 106 % of control | dose: 200.0 mg/kg/injection, schedule: Q01DX001 (ip), vehicle: other 100 % of control

c1ccc2c(c1)nnn2-c1ccncc1
inactive: dose: 50.0 mg/kg/injection, schedule: Q01DX009 (ip), vehicle: saline with Tween-80 92 % of control | [1] 98 % of control | [3] 90 % of control

[O-][n+]1ccc(N2CCOCC2)cc1
inactive: dose: 100.0 mg/kg/injection, schedule: Q01DX001 (ip), vehicle: saline 100 % of control

O=P(Oc1ccccc1)(OP(=O)(Oc1ccccc1)N(CCCl)CCCl)N(CCCl)CCCl (stereo not given)
inactive: dose: 12.5 mg/kg/injection, schedule: Q01DX Z (ip), vehicle: methylcellulose (MC) 97 % of control | dose: 25.0 mg/kg/injection, schedule: Q01DX Z (ip), vehicle: methylcellulose (MC) 102 % of control | dose: 50.0 mg/kg/injection, schedule: Q01DX Z (ip), vehicle: methylcellulose (MC) 96 % of control | dose: 100.0 mg/kg/injection, schedule: Q01DX Z (ip), vehicle: methylcellulose (MC) 96 % of control | dose: 250.0 mg/kg/injection, schedule: Q01DX Z (ip), vehicle: other 98 % of control | dose: 500.0 mg/kg/injection, schedule: Q01DX Z (ip), vehicle: other 104 % of control

Source: PubChem BioAssay AID248 (DTP/NCI, 2004)
